# Experimental data: US10765114B2, “4-amino-6-(pyridyl and 2-substitutedphenyl)-picolinates and 6-amino-2-(pyridyl and 2-substitutedphenyl)-pyrimidine-4-carboxylates and their use as herbicides” (Dow AgroSciences LLC, priority 2013, dated 2020)
# Test system: Key Broadleaf Weed and Crop Species
# Experiment: Post-Emergent Test II (Table 5)
# Assay type: in vivo
# Details: Abutilon theophrasti, post-emergence, 336 h, ABUTH: velvetleaf (Abutilon theophrasti), application rate 70 (kg ai/ha; footnote: g ai/ha), read-out: Visual Growth Reduction (%) 14 Days After Application ABUTH
# Procedure, shortened: (§1)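 Plants grown in a greenhouse (~15 h photoperiod, 23-29° C day) to first or second true leaf stage were sprayed post-emergence at 187 L/ha with compound in acetone/DMSO-based aqueous spray containing crop oil concentrate and surfactant, applied at a high rate plus ½× to 1/16× serial rates. Injury was scored visually 14 days later, 0-100% versus untreated plants.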
row,SMILES,pest or weed control at 70 g/ha [%]
1,COC(=O)c1nc(-c2ccc(C3CC3)nc2)c(F)c(N)c1Cl [Compound 49],95 to 100

# Same assay, conditions: Abutilon theophrasti, post-emergence, 336 h, ABUTH: velvetleaf (Abutilon theophrasti), application rate 140 (kg ai/ha; footnote: g ai/ha), read-out: Visual Growth Reduction (%) 14 Days After Application ABUTH
row,SMILES,pest or weed control at 140 g/ha [%]
1,COC(=O)c1nc(-c2ccc(C3CC3)nc2)c(F)c(N)c1Cl [Compound 49],95 to 100

# Same assay, conditions: Amaranthus retroflexus, post-emergence, 336 h, AMARE: redroot pigweed (Amaranthus retroflexus), application rate 70 (kg ai/ha; footnote: g ai/ha), read-out: Visual Growth Reduction (%) 14 Days After Application AMARE
row,SMILES,pest or weed control at 70 g/ha [%]
1,COC(=O)c1nc(-c2ccc(C3CC3)nc2)c(F)c(N)c1Cl [Compound 49],95 to 100

# Same assay, conditions: Amaranthus retroflexus, post-emergence, 336 h, AMARE: redroot pigweed (Amaranthus retroflexus), application rate 140 (kg ai/ha; footnote: g ai/ha), read-out: Visual Growth Reduction (%) 14 Days After Application AMARE
row,SMILES,pest or weed control at 140 g/ha [%]
1,COC(=O)c1nc(-c2ccc(C3CC3)nc2)c(F)c(N)c1Cl [Compound 49],95 to 100

# Same assay, conditions: Brassica napus, post-emergence, 336 h, BRSSS: oilseed rape, canola (Brassica napus), application rate 70 (kg ai/ha; footnote: g ai/ha), read-out: Visual Growth Reduction (%) 14 Days After Application BRSSS
row,SMILES,pest or weed control at 70 g/ha [%]
1,COC(=O)c1nc(-c2ccc(C3CC3)nc2)c(F)c(N)c1Cl [Compound 49],75 to 84

# Same assay, conditions: Brassica napus, post-emergence, 336 h, BRSSS: oilseed rape, canola (Brassica napus), application rate 140 (kg ai/ha; footnote: g ai/ha), read-out: Visual Growth Reduction (%) 14 Days After Application BRSSS
row,SMILES,pest or weed control at 140 g/ha [%]
1,COC(=O)c1nc(-c2ccc(C3CC3)nc2)c(F)c(N)c1Cl [Compound 49],75 to 84

# Same assay, conditions: Chenopodium album, post-emergence, 336 h, CHEAL: lambsquarters (Chenopodium album), application rate 70 (kg ai/ha; footnote: g ai/ha), read-out: Visual Growth Reduction (%) 14 Days After Application CHEAL
row,SMILES,pest or weed control at 70 g/ha [%]
1,COC(=O)c1nc(-c2ccc(C3CC3)nc2)c(F)c(N)c1Cl [Compound 49],95 to 100

# Same assay, conditions: Chenopodium album, post-emergence, 336 h, CHEAL: lambsquarters (Chenopodium album), application rate 140 (kg ai/ha; footnote: g ai/ha), read-out: Visual Growth Reduction (%) 14 Days After Application CHEAL
row,SMILES,pest or weed control at 140 g/ha [%]
1,COC(=O)c1nc(-c2ccc(C3CC3)nc2)c(F)c(N)c1Cl [Compound 49],95 to 100

# Same assay, conditions: Euphorbia heterophylla, post-emergence, 336 h, EPHHL: wild poinsettia (Euphorbia heterophylla), application rate 70 (kg ai/ha; footnote: g ai/ha), read-out: Visual Growth Reduction (%) 14 Days After Application EPHHL
row,SMILES,pest or weed control at 70 g/ha [%]
1,COC(=O)c1nc(-c2ccc(C3CC3)nc2)c(F)c(N)c1Cl [Compound 49],95 to 100

# Same assay, conditions: Euphorbia heterophylla, post-emergence, 336 h, EPHHL: wild poinsettia (Euphorbia heterophylla), application rate 140 (kg ai/ha; footnote: g ai/ha), read-out: Visual Growth Reduction (%) 14 Days After Application EPHHL
row,SMILES,pest or weed control at 140 g/ha [%]
1,COC(=O)c1nc(-c2ccc(C3CC3)nc2)c(F)c(N)c1Cl [Compound 49],95 to 100

# Same assay, conditions: Helianthus annuus, post-emergence, 336 h, HELAN: sunflower (Helianthus annuus), application rate 70 (kg ai/ha; footnote: g ai/ha), read-out: Visual Growth Reduction (%) 14 Days After Application HELAN
row,SMILES,pest or weed control at 70 g/ha [%]
1,COC(=O)c1nc(-c2ccc(C3CC3)nc2)c(F)c(N)c1Cl [Compound 49],95 to 100

# Same assay, conditions: Helianthus annuus, post-emergence, 336 h, HELAN: sunflower (Helianthus annuus), application rate 140 (kg ai/ha; footnote: g ai/ha), read-out: Visual Growth Reduction (%) 14 Days After Application HELAN
row,SMILES,pest or weed control at 140 g/ha [%]
1,COC(=O)c1nc(-c2ccc(C3CC3)nc2)c(F)c(N)c1Cl [Compound 49],95 to 100

# Same assay, conditions: Viola tricolor, post-emergence, 336 h, VIOTR: wild pansy (Viola tricolor), application rate 70 (kg ai/ha; footnote: g ai/ha), read-out: Visual Growth Reduction (%) 14 Days After Application VIOTR
row,SMILES,pest or weed control at 70 g/ha [%]
1,COC(=O)c1nc(-c2ccc(C3CC3)nc2)c(F)c(N)c1Cl [Compound 49],30 to 44

# Same assay, conditions: Viola tricolor, post-emergence, 336 h, VIOTR: wild pansy (Viola tricolor), application rate 140 (kg ai/ha; footnote: g ai/ha), read-out: Visual Growth Reduction (%) 14 Days After Application VIOTR
row,SMILES,pest or weed control at 140 g/ha [%]
1,COC(=O)c1nc(-c2ccc(C3CC3)nc2)c(F)c(N)c1Cl [Compound 49],45 to 59

# Test system: Key Grass and Sedge Weeds as well as Grass Crops
# Experiment: Post-Emergent Test II (Table 6)
# Assay type: in vivo
# Details: post-emergence, 336 h, CYPSS, 70 g ai/ha, 14 days after application, read-out: Visual Growth Reduction (%) 14 Days After Application CYPSS
# Procedure, shortened: as §1
row,SMILES,pest or weed control at 70 g/ha [%]
1,COC(=O)c1nc(-c2ccc(C3CC3)nc2)c(F)c(N)c1Cl [Compound 49],95 to 100

# Same assay, conditions: post-emergence, 336 h, CYPSS, 140 g ai/ha, 14 days after application, read-out: Visual Growth Reduction (%) 14 Days After Application CYPSS
row,SMILES,pest or weed control at 140 g/ha [%]
1,COC(=O)c1nc(-c2ccc(C3CC3)nc2)c(F)c(N)c1Cl [Compound 49],95 to 100

# Same assay, conditions: post-emergence, 336 h, DIGSA: crabgrass (Digitaria sanguinalis), 70 g ai/ha, 14 days after application, read-out: Visual Growth Reduction (%) 14 Days After Application DIGSA
row,SMILES,pest or weed control at 70 g/ha [%]
1,COC(=O)c1nc(-c2ccc(C3CC3)nc2)c(F)c(N)c1Cl [Compound 49],75 to 84

# Same assay, conditions: post-emergence, 336 h, DIGSA: crabgrass (Digitaria sanguinalis), 140 g ai/ha, 14 days after application, read-out: Visual Growth Reduction (%) 14 Days After Application DIGSA
row,SMILES,pest or weed control at 140 g/ha [%]
1,COC(=O)c1nc(-c2ccc(C3CC3)nc2)c(F)c(N)c1Cl [Compound 49],75 to 84

# Same assay, conditions: post-emergence, 336 h, ECHSS, 70 g ai/ha, 14 days after application, read-out: Visual Growth Reduction (%) 14 Days After Application ECHSS
row,SMILES,pest or weed control at 70 g/ha [%]
1,COC(=O)c1nc(-c2ccc(C3CC3)nc2)c(F)c(N)c1Cl [Compound 49],95 to 100

# Same assay, conditions: post-emergence, 336 h, ECHSS, 140 g ai/ha, 14 days after application, read-out: Visual Growth Reduction (%) 14 Days After Application ECHSS
row,SMILES,pest or weed control at 140 g/ha [%]
1,COC(=O)c1nc(-c2ccc(C3CC3)nc2)c(F)c(N)c1Cl [Compound 49],95 to 100

# Same assay, conditions: post-emergence, 336 h, ORYSS (crop), 70 g ai/ha, 14 days after application, read-out: Visual Growth Reduction (%) 14 Days After Application ORYSS
row,SMILES,pest or weed control at 70 g/ha [%]
1,COC(=O)c1nc(-c2ccc(C3CC3)nc2)c(F)c(N)c1Cl [Compound 49],30 to 44

# Same assay, conditions: post-emergence, 336 h, ORYSS (crop), 140 g ai/ha, 14 days after application, read-out: Visual Growth Reduction (%) 14 Days After Application ORYSS
row,SMILES,pest or weed control at 140 g/ha [%]
1,COC(=O)c1nc(-c2ccc(C3CC3)nc2)c(F)c(N)c1Cl [Compound 49],30 to 44

# Same assay, conditions: post-emergence, 336 h, SETFA: giant foxtail (Setaria faberi), 70 g ai/ha, 14 days after application, read-out: Visual Growth Reduction (%) 14 Days After Application SETFA
row,SMILES,pest or weed control at 70 g/ha [%]
1,COC(=O)c1nc(-c2ccc(C3CC3)nc2)c(F)c(N)c1Cl [Compound 49],85 to 94

# Same assay, conditions: post-emergence, 336 h, SETFA: giant foxtail (Setaria faberi), 140 g ai/ha, 14 days after application, read-out: Visual Growth Reduction (%) 14 Days After Application SETFA
row,SMILES,pest or weed control at 140 g/ha [%]
1,COC(=O)c1nc(-c2ccc(C3CC3)nc2)c(F)c(N)c1Cl [Compound 49],85 to 94

# Same assay, conditions: post-emergence, 336 h, SORVU: grain sorghum (Sorghum vulgare), 70 g ai/ha, 14 days after application, read-out: Visual Growth Reduction (%) 14 Days After Application SORVU
row,SMILES,pest or weed control at 70 g/ha [%]
1,COC(=O)c1nc(-c2ccc(C3CC3)nc2)c(F)c(N)c1Cl [Compound 49],85 to 94

# Same assay, conditions: post-emergence, 336 h, SORVU: grain sorghum (Sorghum vulgare), 140 g ai/ha, 14 days after application, read-out: Visual Growth Reduction (%) 14 Days After Application SORVU
row,SMILES,pest or weed control at 140 g/ha [%]
1,COC(=O)c1nc(-c2ccc(C3CC3)nc2)c(F)c(N)c1Cl [Compound 49],85 to 94

# Same assay, conditions: post-emergence, 336 h, TRZSS (crop), 70 g ai/ha, 14 days after application, read-out: Visual Growth Reduction (%) 14 Days After Application TRZSS
row,SMILES,pest or weed control at 70 g/ha [%]
1,COC(=O)c1nc(-c2ccc(C3CC3)nc2)c(F)c(N)c1Cl [Compound 49],45 to 59

# Same assay, conditions: post-emergence, 336 h, TRZSS (crop), 140 g ai/ha, 14 days after application, read-out: Visual Growth Reduction (%) 14 Days After Application TRZSS
row,SMILES,pest or weed control at 140 g/ha [%]
1,COC(=O)c1nc(-c2ccc(C3CC3)nc2)c(F)c(N)c1Cl [Compound 49],45 to 59

# Same assay, conditions: post-emergence, 336 h, ZEAMX: maize, corn (Zea mays), 70 g ai/ha, 14 days after application, read-out: Visual Growth Reduction (%) 14 Days After Application ZEAMX
row,SMILES,pest or weed control at 70 g/ha [%]
1,COC(=O)c1nc(-c2ccc(C3CC3)nc2)c(F)c(N)c1Cl [Compound 49],95 to 100

# Same assay, conditions: post-emergence, 336 h, ZEAMX: maize, corn (Zea mays), 140 g ai/ha, 14 days after application, read-out: Visual Growth Reduction (%) 14 Days After Application ZEAMX
row,SMILES,pest or weed control at 140 g/ha [%]
1,COC(=O)c1nc(-c2ccc(C3CC3)nc2)c(F)c(N)c1Cl [Compound 49],95 to 100

# Test system: not given
# Experiment: not given
# Details: not given
row,melting point [°C],SMILES
1,124 to 126,COC(=O)c1nc(-c2ccc(C3CC3)nc2)c(F)c(N)c1Cl [Compound 49]
